Data on 21 compounds can be found in patent US20090326001A1, “THIENOPYRIDINE DERIVATIVES AS MODULATORS OF METABOTROPIC GLUTAMATE RECEPTORS” (priority 2005, published 2009).

One assay addresses T1, mGluR5 (UniProt P31424).
T1 construct: Rat cerebro-cortical membrane preparation
The experiment in a line: mGluR5 receptor binding test ([3H]-M-MPEP displacement). Conditions: radioligand [3H]-M-MPEP 2 nM; table does not say rat cerebro-cortical membrane or human mGluR5a A18 cells; read-out: mGlu5 Ki. As for the experimental part:
Rat cerebro-cortical membrane preparation was used to determine the binding characteristics of reference compounds and novel compounds to the rat mGluR5. The A18 cell line expressing hmGluR5a (purchased from Euroscreen) was used to determine binding characteristics of the chemical compounds to the human mGluR5a receptor. As radioligand [3H]-M-MPEP (2 nM) was used. The nonspecific binding was determined in the presence of 10 μM M-MPEP.

Another assay concerns the target T2, rat mGluR1 (Rattus norvegicus, UniProt P23385).
T2 construct: rat cerebellar membrane preparation was used; from tissue; host or cells: rat cerebellum (membrane preparation)
The experiment in a line: mGluR1 receptor binding test ([3H]R214127 displacement, rat cerebellar membrane). Conditions: radioligand [3H]R214127 3 nM, read-out: mGlu1 Ki. The protocol: MGluR1 receptor binding testes were performed according to modified method of Lavreysen et al. (Mol. Pharm., 2003, 63, 1082). Based on the high homology between the human and rat mGluR1 receptors, rat cerebellar membrane preparation was used to determine the binding characteristics of reference compounds and novel compounds to the rat mGluR1. As radioligand [3H]R214127 (3 nM) was used and the nonspecific binding was determined in the presence of 1 μM of R214127.
IC-50 values were determined from displacement curves by nonlinear regression analysis and were converted by equation method of Cheng and Prusoff (Biochem. Pharmacol., 1973, 22, 3099) to Ki values.

T2 sequence (P23385 19-1199): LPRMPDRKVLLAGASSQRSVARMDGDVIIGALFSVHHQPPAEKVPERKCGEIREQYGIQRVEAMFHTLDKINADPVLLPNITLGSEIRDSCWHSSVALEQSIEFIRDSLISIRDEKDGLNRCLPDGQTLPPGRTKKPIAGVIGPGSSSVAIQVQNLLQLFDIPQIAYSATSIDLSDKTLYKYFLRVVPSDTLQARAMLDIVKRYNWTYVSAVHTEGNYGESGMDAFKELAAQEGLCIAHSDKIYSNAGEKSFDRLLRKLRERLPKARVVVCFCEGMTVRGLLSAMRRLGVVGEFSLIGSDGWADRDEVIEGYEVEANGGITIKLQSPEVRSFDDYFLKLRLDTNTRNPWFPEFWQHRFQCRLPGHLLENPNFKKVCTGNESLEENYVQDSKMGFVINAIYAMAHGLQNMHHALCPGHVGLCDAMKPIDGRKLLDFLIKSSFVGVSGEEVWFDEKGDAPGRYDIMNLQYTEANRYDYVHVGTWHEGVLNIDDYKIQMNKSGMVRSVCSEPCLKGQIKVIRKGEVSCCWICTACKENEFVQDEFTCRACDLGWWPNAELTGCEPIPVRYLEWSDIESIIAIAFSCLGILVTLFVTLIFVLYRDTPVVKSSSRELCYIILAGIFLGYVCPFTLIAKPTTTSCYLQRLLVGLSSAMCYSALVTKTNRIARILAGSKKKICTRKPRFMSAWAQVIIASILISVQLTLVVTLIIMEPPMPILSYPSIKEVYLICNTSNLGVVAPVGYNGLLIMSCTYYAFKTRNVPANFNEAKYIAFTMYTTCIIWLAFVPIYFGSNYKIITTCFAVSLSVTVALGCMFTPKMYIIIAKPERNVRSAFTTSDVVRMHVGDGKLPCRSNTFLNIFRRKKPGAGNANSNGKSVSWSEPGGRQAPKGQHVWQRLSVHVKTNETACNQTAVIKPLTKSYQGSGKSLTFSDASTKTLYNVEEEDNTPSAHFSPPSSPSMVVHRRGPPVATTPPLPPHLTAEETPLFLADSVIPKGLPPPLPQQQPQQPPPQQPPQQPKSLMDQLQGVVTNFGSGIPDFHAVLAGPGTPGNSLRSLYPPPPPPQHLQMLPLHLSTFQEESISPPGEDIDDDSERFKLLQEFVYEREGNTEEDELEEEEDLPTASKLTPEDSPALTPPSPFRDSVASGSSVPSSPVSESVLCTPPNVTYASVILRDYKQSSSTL

For `O=C(CCc1ccsc1)c1sc2ncccc2c1-c1ccc(F)cc1` [Compound 19, 1-[3-(4-fluoro-phenyl)-thieno[2,3-b]pyridin-2-yl]-3-thiophen-3-yl-propan-1-one], the Ki on mGluR5 and on rat mGluR1 was below 0.5 µM throughout.

Take `CCOC(=O)CC(=O)c1sc2ncccc2c1-c1ccccc1` [Compound 25, 3-oxo-3-(3-phenyl-thieno[2,3-b]pyridin-2-yl)-propionic acid ethyl ester]: the Ki on mGluR5 and on rat mGluR1 was below 0.5 µM throughout.

As to `O=C(Cc1ccc(F)cc1)c1sc2ncccc2c1-c1ccc(Cl)cc1` [Compound 1, 1-[3-(4-chloro-phenyl)-thieno[2,3-b]pyridin-2-yl]-2-(4-fluoro-phenyl)-ethanone], the Ki on mGluR5 and at rat mGluR1 was below 0.5 µM in each case.

Consider `CCOC(=O)CC(=O)c1sc2ncccc2c1-c1ccc(Cl)cc1` [Compound 23, 3-[3-(4-Chloro-phenyl)-thieno[2,3-b]pyridin-2-yl]-3-oxo-propionic acid ethyl ester], for which the Ki at mGluR5 and on rat mGluR1 was below 0.5 µM in each case.

Take `CCOC(=O)CC(=O)c1sc2ncccc2c1-c1ccc(F)cc1` [Compound 24, 3-[3-(4-fluoro-phenyl)-thieno[2,3-b]pyridin-2-yl]-3-oxo-propionic acid ethyl ester]: the inhibition constant (Ki) at mGluR5 and on rat mGluR1 was below 0.5 µM each time.

As to `CN(Cc1cccs1)C(=O)c1sc2ncccc2c1-c1ccc(Cl)cc1` [Compound 30], the Ki at mGluR5 and on rat mGluR1 was above 1.5 µM each time.

Consider `CCOC(=O)CC(=O)c1sc2ncccc2c1-c1ccc(C)cc1` [Compound 22, 3-oxo-3-(3-p-tolyl-thieno[2,3-b]pyridin-2-yl)-propionic acid ethyl ester], for which the Ki on mGluR5 and on rat mGluR1 was below 0.5 µM in each case.

As to `O=C(CCc1ccccn1)c1sc2ncccc2c1-c1ccc(F)cc1` [Compound 17], the Ki at mGluR5 was 0.5 to 1.5 µM; at rat mGluR1, below 0.5 µM.

`O=C(OCc1ccc(F)cc1)c1sc2ncccc2c1-c1ccc(Cl)cc1` [Compound 20, 3-(4-chloro-phenyl)-thieno[2,3-b]pyridine-2-carboxylic acid 4-fluoro-benzyl ester]: the Ki on mGluR5 and at rat mGluR1 was below 0.5 µM each time.

For “3-(4-Fluoro-phenyl)-1-[3-(4-fluoro-phenyl)-thieno[2,3-b]pyridin-2-yl]-propenone [Compound 10]”, the Ki at mGluR5 was above 1.5 µM; at rat mGluR1 it was below 0.5 µM.

For `CN(Cc1ccc(F)cc1)C(=O)c1sc2ncccc2c1-c1ccc(Cl)cc1` [Compound 34], the Ki on mGluR5 is above 1.5 µM; at rat mGluR1 it was 0.5 to 1.5 µM.

On to `O=C(Cc1ccc(F)c(F)c1)c1sc2ncccc2c1-c1ccc(Cl)cc1` [Compound 2, 1-[3-(4-chloro-phenyl)-thieno[2,3-b]pyridin-2-yl]-2-(3,4-difluoro-phenyl)-ethanone], for which the Ki at mGluR5 and at rat mGluR1 was below 0.5 µM in each case.

In the case of `O=C(Nc1ccc(F)cc1)c1sc2ncccc2c1-c1ccc(F)cc1` [Compound 37], the Ki at mGluR5 and on rat mGluR1 was above 1.5 µM in each case.

For the compound `O=C(CCc1cccc(F)c1)c1sc2ncccc2c1-c1ccc(F)cc1` [Compound 4, 3-(3-fluoro-phenyl)-1-[3-(4-fluoro-phenyl)-thieno[2,3-b]pyridin-2-yl]-propan-1-one], the Ki at mGluR5 and at rat mGluR1 was below 0.5 µM throughout.

As for `O=C(Cc1ccc(F)cc1)c1sc2ncccc2c1-c1ccc(F)cc1` [Compound 3, 2-(4-fluoro-phenyl)-1-[3-(4-fluoro-phenyl)-thieno[2,3-b]pyridin-2-yl]-ethanone], the Ki at mGluR5 and on rat mGluR1 was below 0.5 µM each time.

In the case of `O=C(Nc1nccs1)c1sc2ncccc2c1-c1ccc(Cl)cc1` [Compound 35], the Ki on mGluR5 and on rat mGluR1 was above 1.5 µM in each case.

As to `O=C(CCc1ccoc1)c1sc2ncccc2c1-c1ccc(F)cc1` [Compound 16], the Ki at mGluR5 and on rat mGluR1 was 0.5 to 1.5 µM in each case.

`O=C(CCc1cccs1)c1sc2ncccc2c1-c1ccc(F)cc1` [Compound 18]: the Ki was 0.5 to 1.5 µM at mGluR5 and below 0.5 µM at rat mGluR1.

For `O=C(NCc1ccc(F)cc1)c1sc2ncccc2c1-c1ccc(F)cc1` [Compound 27, 3-(4-Fluoro-phenyl)-thieno[2,3-b]pyridin-2-carboxylic acid (4-fluoro-benzyl)-amide], the inhibition constant Ki on mGluR5 and at rat mGluR1 was below 0.5 µM each time.

Consider `O=C(CCc1ccc(F)cc1)c1sc2ncccc2c1-c1ccc(F)cc1` [Compound 5, 3-(4-Fluoro-phenyl)-1-[3-(4-fluoro-phenyl)-thieno[2,3-b]pyridin-2-yl]-propan-1-one], for which the inhibition constant (Ki) at mGluR5 and on rat mGluR1 was below 0.5 µM each time.

On to `CCOC(=O)CC(=O)c1sc2nc(C)ccc2c1-c1ccc(Cl)cc1` [Compound 26, 3-[3-(4-chloro-phenyl)-6-methyl-thieno[2,3-b]pyridin-2-yl]-3-oxo-propionic acid ethyl ester], for which the Ki at mGluR5 and on rat mGluR1 was below 0.5 µM in each case.
